Converted amounts (≈) assume the structure as drawn.
Key:
E. coli ATCC25922 strain = assay: MIC 50, broth micro-dilution, wild-type Escherichia coli; type: cell-based; conditions: Escherichia coli, ATCC25922, 18 h, MH2, 18 h
Text: (§1) 3.1 Against E. coli Strains
(§2) Tested reference compounds. Amikacin sulfate (Cat. No. 01693, Chem-Impex), Gentamicin sulfate (Cat. No. G4918, Sigma Aldrich).
(§3) Microbial strains. E. coli ATCC 25922, E. coli ATCC 25922/pET-9b(+), E. coli ATCC 25922/pAT21-1, E. coli ATCC 25922/pBluescript::AAC(6′)-Ie/APH(2″)-Ia, E. coli ATCC 25922/pBlue_lpp_aacC3_rrnC, E. coli ATCC 25922/pSET152.
(§4) Culture media and equipment. BBL™ Mueller Hinton Broth 2 (Lot. BCBW1143, Cat. No. 70192, Sigma); Kanamycin A (Cat. No. A1493, AppliChem); 96-well deep well plate, 1 mL (Cat. No. 0030506.200, Eppendorf); Plate lids (Cat. No. 0030131.525, Eppendorf); 96-well plate, F-bottom (Cat. No. 781602, Brand; Incubator, Infors Multitron Pro); Laminar flow (Heraeus KS12); UV/VIS meter (Eppendorf BioPhotometer Plus); Platereader (Tecan Sunrise).
(§5) Compound preparation. Compounds were prepared in MH2 media at a concentration of 5 mM and stored at 4° C. For testing, solutions of 128 μM were prepared in MH2. Out of these working solutions, 400 μL was transferred to wells in the first column of 96-well deep well plates. Each compound was transferred in triplicate. Plates were previously filled with 200 μL of MH2 media in all wells except for the wells in the first column. After compound and antibiotic addition, the compounds were serial two-fold diluted by transferring 200 μL from the first to the second column, then from the second to the third column and so on. Finally, 200 μL was removed from the last column.
(§6) Inoculum preparation. Microorganisms used were all revived from 20% glycerol (40% v/v glycerol in water was diluted with MH2) storage at −80° C. by inoculating them in 5 mL MH2. inoculums of E. coli containing a plasmid were selected for by adding 50 μg/mL KanaA. The Inoculums were grown to an optical density (measured by UV/Vis spectroscopy) of 0.6-0.8 at 600 nm. Out of these suspensions, actual inoculums were prepared by diluting them to an optical density (OD) of 0.1 in MH2 media. From these inoculums, 200 μL was transferred to each well, resulting in a final compound concentration range of 64 μM-31.3 nM. All plates were incubated at 900 rpm and 70% rH for 18 h at 37° C.
MIC determination. After 18 h of growth, 200 μL was transferred to a 96-well F-bottom plate. The optical density was determined by a plate reader at 600 nm, with 10 s shaking before reading. Triplicate measurements were averaged, and a growth curve was plotted in Microsoft Excel. The first column in which the growth reached half the value of maximum growth was determined as the MIC50 value for that particular compound.
MIC50. The MIC50 of a compound was assigned at which the bacterial growth reached half the value of maximum growth.

E. coli (APH(3′)IIIa) = assay: MIC 50, broth micro-dilution, E. coli expressing APH(3′)IIIa; type: cell-based, Escherichia coli; conditions: Escherichia coli, ATCC25922, ATCC25922 harboring plasmid encoding APH(3′)IIIa
Experimental: (§7) Plasmid transformation. Approximately 500 ng of the pET-9b(+) (Cat. No. 69432-3, Merck), pAT21-1 (provided by Prof. Dr. Patrice Courvalin, M.D., Pasteur Institute, France; prepared according to Trieu-Cuot et. al, Mol. Gen. Genet. 198(2), 348 (1985)), pBluescript::AAC(6′)-Ie/APH(2″)-Ia (provided by Prof. Dr. Sergei Vakulenko, M.D., University of Notre Dame, Ind., USA; prepared according to S. B. Vakulenko et. al., J. Biol. Chem. 287 (52), 43262 (2012)), pBlue_lpp_aacC3_rrnC and pSET152 (Cat. No. PVT3395, Life Science Market; prepared according to Bierman et al., Gene 116 (1), 43 (1992)) plasmids, encoding APH(3′)-Ia (SEQ ID NO:2), APH(3′)-IIIa (SEQ ID NO:3), AAC(6′)Ie-APH(2″)-Ia (SEQ ID NO:4), AAC(3)-III (SEQ ID NO:1), and AAC(3)-IV (SEQ ID NO:5) respectively, were individually incubated in a vial of competent cells for 15 min on ice. The cells were subsequently heated to 42° C. for 90 s, and cooled on ice for 1 min. After addition of 900 μL LB, the cells were incubated for 1 h at 37° C. and 200 rpm. Cells were plated on LB-agar supplemented with 50 μg/mL KanaA and incubated for 18 h at 37° C. The next day, a single colony was inoculated in 5 mL LB supplemented with 50 μg/mL and grown for 18 h at 37° C. and 200 rpm. A 200 μL sample of each culture was diluted with 200 μL of 40% v/v glycerol in water, and stored at −80° C. The plasmid was purified from the remaining culture using the Plasmid Miniprep kit. Plasmid DNA was investigated by Eurofins Genomics (Germany) to confirm the identity of the aminoglycoside resistance genes.
as §1, §2, §3, §4, §5, §6
(§8) MIC determination. After 18 h of growth, 200 μL was transferred to a 96-well F-bottom plate. The optical density was determined by a plate reader at 600 nm, with 10 s shaking before reading. Triplicate measurements were averaged, and a growth curve was plotted in Microsoft Excel. […]

E. coli (APH(3′)Ia) = assay: MIC 50, broth micro-dilution, E. coli expressing APH(3′)Ia; type: cell-based, Escherichia coli; conditions: Escherichia coli, ATCC25922, ATCC25922 harboring plasmid encoding APH(3′)Ia
Experimental: as §7, §1, §2, §3, §4, §5, §6, §8

[1] = system: E. coli (AAC(6′)Ie-APH(2″)Ia); assay: MIC 50, broth micro-dilution, E. coli expressing AAC(6′)Ie-APH(2″)Ia; type: cell-based, Escherichia coli; conditions: Escherichia coli, ATCC25922, ATCC25922 harboring plasmid encoding AAC(6′)Ie-APH(2″)Ia
Experimental: as §7, §1, §2, §3, §4, §5, §6, §8

E. coli (AAC(3)III) = assay: MIC 50, broth micro-dilution, E. coli expressing AAC(3)III; type: cell-based, Escherichia coli; conditions: Escherichia coli, ATCC25922, ATCC25922 harboring plasmid encoding AAC(3)III
Text: Cloning resistant enzymes. An Escherichia coli codon optimized gene encoding AAC(3)-III (GenBank acc.nr. X55652.1; SEQ ID NO:1), including a promoter and terminator sequence, was synthesized by Integrated DNA Technologies, Belgium. The synthesized gene and pBluescript II KS(+) plasmid were digested using the restriction enzymes SacI and SalI, and purified from a 1% TBE-agarose gel using the illustra Gel Band purification kit. The purified linear plasmid and T4 DNA ligase were used to ligate aac(3)-III under control of the constitutive lipoprotein Ipp promoter and ribosomal RNA rrnC terminator, resulting in pBlue_Ipp_aacC3_rrnC.
as §7, §1, §2, §3, §4, §5
Inoculum preparation. Microorganisms used were all revived from 20% glycerol (40% v/v glycerol in water was diluted with MH2) storage at −80° C. by inoculating them in 5 mL MH2. inoculums of E. coli containing a plasmid were selected for by adding 50 μg/mL KanaA.

E. coli (AAC(3)IV) = assay: MIC 50, broth micro-dilution, E. coli expressing AAC(3)IV; type: cell-based, Escherichia coli; conditions: Escherichia coli, ATCC25922, ATCC25922 harboring plasmid encoding AAC(3)IV
Experimental: as §7, §1, §2, §3, §4, §5, §6, §8

## N=C(N)NC1[C@@H](O)C(OC2[C@@H](F)[C@H](O[C@H]3OC(CN)[C@@H](O)CC3N)C(N)C[C@H]2NC(=O)[C@@H](F)CCN)O[C@H](CO)[C@H]1O (stereo partly drawn) [ABX5034, Tobra-(AFB)-F-Gua]
E. coli ATCC25922 strain
  MIC50: 1 µM (≈ 0.615 µg/mL)
E. coli (APH(3′)IIIa)
  MIC50: 0.5 to 1 µM (≈ 0.307 to 0.615 µg/mL)
E. coli (APH(3′)Ia)
  MIC50: 1 µM (≈ 0.615 µg/mL)
[1]
  MIC50: 1 µM (≈ 0.615 µg/mL)
E. coli (AAC(3)III)
  MIC50: 0.5 to 1 µM (≈ 0.307 to 0.615 µg/mL)
E. coli (AAC(3)IV)
  MIC50: 2 to 4 µM (≈ 1.23 to 2.46 µg/mL)
